Laboratory results as given in paper PMC3862409 (International Journal for Parasitology, Drugs and Drug …, 2013).
Changes are numbered by the printed parent chain. “Also recorded” adds a separate entry of the source. One block for each compound: values may come before it.

Key:
[1] = biological target: T1, T. brucei hexokinase 1 (TbHK1), WT (Trypanosoma brucei brucei, UniProt Q38C42); assay: Coupled hexokinase assay; format: biochemical
T1 sequence (Q38C42 1-471): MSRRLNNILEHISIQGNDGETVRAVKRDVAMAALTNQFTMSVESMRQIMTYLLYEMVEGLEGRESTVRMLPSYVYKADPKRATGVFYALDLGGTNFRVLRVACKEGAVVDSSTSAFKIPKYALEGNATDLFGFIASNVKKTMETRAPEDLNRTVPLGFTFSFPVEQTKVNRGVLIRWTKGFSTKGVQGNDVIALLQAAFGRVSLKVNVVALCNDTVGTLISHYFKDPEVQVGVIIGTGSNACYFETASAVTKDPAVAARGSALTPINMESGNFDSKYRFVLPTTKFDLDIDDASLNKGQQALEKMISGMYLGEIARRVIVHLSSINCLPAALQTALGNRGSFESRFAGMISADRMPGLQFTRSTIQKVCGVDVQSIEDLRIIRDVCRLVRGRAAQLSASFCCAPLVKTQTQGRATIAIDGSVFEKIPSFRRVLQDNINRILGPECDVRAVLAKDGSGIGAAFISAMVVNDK

TbHK1 [2] = biological target: T2, TbHK1 (Trypanosoma brucei brucei, UniProt Q38C42); details: ref Sharlow et al., 2010b, cited from earlier work; for Inhibition of TbHK1: LOPAC screen, at 10 μM
T2 sequence (Q38C42 1-471): T1 sequence (Q38C42 1-471)

T. brucei parasites = details: ref Sharlow et al., cited from earlier work; for EC50: read-out: EC50 against parasites, unit inferred, 2010a,b; for Toxicity to parasites: 2010b
[3] = tested on: HK from Plasmodium falciparum (PfHK); details: ref Harris et al., 2013, cited from earlier work
parasite G6-P levels = details: after acute exposure; ref Sharlow et al., 2010a,b; cited from earlier work
TbHK1 C212S = biological target: T3, TbHK1 C212S (Trypanosoma brucei brucei, UniProt Q38C42, C212S); assay: Coupled hexokinase assay, TbHK1 Cys variant C212S; format: biochemical
T3 sequence (Q38C42 1-471 C212S): T1 sequence (Q38C42 1-471) with C212S

TbHK1 C445A = biological target: T4, TbHK1 C445A (Trypanosoma brucei brucei, UniProt Q38C42, C445A); assay: Coupled hexokinase assay, TbHK1 Cys variant C445A; format: biochemical
T4 sequence (Q38C42 1-471 C445A): T1 sequence (Q38C42 1-471) with C445A

TbHK1 C401A = biological target: T5, TbHK1 C401A (Trypanosoma brucei brucei, UniProt Q38C42, C401A); assay: Coupled hexokinase assay, TbHK1 Cys variant C401A; format: biochemical
T5 sequence (Q38C42 1-471 C401A): T1 sequence (Q38C42 1-471) with C401A

TbHK1 C242A = biological target: T6, TbHK1 C242A (Trypanosoma brucei brucei, UniProt Q38C42, C242A); assay: Coupled hexokinase assay, TbHK1 Cys variant C242A; format: biochemical
T6 sequence (Q38C42 1-471 C242A): T1 sequence (Q38C42 1-471) with C242A

[4] = tested on: glucose-6-phosphate dehydrogenase (G6PDH); assay: Counterscreen for inhibition of G6PDH; format: biochemical
[5] = cited from earlier work
TbHK1 C369A = biological target: T7, TbHK1 C369A (Trypanosoma brucei brucei, UniProt Q38C42, C369A); assay: Coupled hexokinase assay, TbHK1 Cys variant C369A; format: biochemical
T7 sequence (Q38C42 1-471 C369A): T1 sequence (Q38C42 1-471) with C369A

TbHK1 C402A = biological target: T8, TbHK1 C402A (Trypanosoma brucei brucei, UniProt Q38C42, C402A); assay: Coupled hexokinase assay, TbHK1 Cys variant C402A; format: biochemical
T8 sequence (Q38C42 1-471 C402A): T1 sequence (Q38C42 1-471) with C402A

TbHK1 [6] = biological target: T2, TbHK1; assay: Native gel analysis of TbHK1 oligomerization; details: data not shown
[7] = tested on: human indoleamine 2,3-dioxygenase (IDO); details: covalent modification of multiple Cys residues; ref Terentis et al., 2010; cited from earlier work

- Impact on enzyme activity ([1]; DTT alone, 100 mM): little impact on enzyme activity
Structure (SMILES): O[C@@H](CS)[C@@H](O)CS (racemic) [DTT, dithiothreitol]

Structure (SMILES): O=C(O)c1cc[c]([Hg][Cl])cc1 [4-chloromercuribenzoic acid]
- Inhibition of TbHK1 (TbHK1 [2]): 84.7 ± 0.4%

Structure (SMILES): O=c1c2ccccc2sn1-c1ccccc1 [EbS, 2-phenyl-1,2-benzisothiazol-3(2H)-one]
- EC50 (T. brucei parasites): 0.03 ± 0.067 µM
- Toxicity to parasites (T. brucei parasites): toxic to parasites
- Reversibility of PfHK inhibition by dilution [3]: completely relieved by dilution
- Effect on parasite G6-P levels (parasite G6-P levels): able to reduce parasite G6-P levels

Structure (SMILES): O=c1c2ccccc2[se]n1-c1ccccc1 [EbSe, 2-phenyl-1,2-benzisoselenazol-3(2H)-one]
- Sensitivity of variant to inhibition (TbHK1 C212S): remained sensitive
- IC50 (TbHK1 C212S; read-out: EbSe IC50, relative to WT): < 0.35 µM
- IC50 (TbHK1 C445A): 0.52 ± 0.05 µM
- IC50 [1]: 0.35 ± 0.07 µM
- Reversibility of inhibition by dilution ([1]; 200-fold dilution of enzyme and inhibitor after pre-incubation): not reversible; also recorded: irreversible
- Rescue of enzyme activity by DTT added after inhibitor incubation ([1]; DTT 100 mM added after incubation with inhibitor): only modestly rescued enzyme activity
- Relief of inhibition by excess Mg2+ ([1]; Mg2+ at ~15-fold higher concentrations than standard reaction, data not shown): did not relieve EbSe inhibition
- Effect of pre-incubation of TbHK1 with DTT on inhibition ([1]; data not shown): prevented EbSe inhibition
- Effect of pre-incubation with MPB on inhibition ([1]; enzyme pre-incubated with MPB): did not appreciably alter EbSe inhibition
- Inhibition of TbHK1 (TbHK1 [2]): 88.1 ± 0.6%
- Mode of inhibition (TbHK1 [2]; with respect to ATP): mixed inhibitors
- IC50 (TbHK1 C401A): 0.29 ± 0.04 µM
- IC50 (TbHK1 C242A): 0.55 ± 0.02 µM
- Inhibition of G6PDH in counterscreen [4]: ineffective
- Toxicity to humans ([5]; human, in vivo): non-toxic
- Outcome of patients suffering stroke ([5]; ref Yamaguchi et al., 1998): improve the outcome
- IC50 (TbHK1 C369A): 0.26 ± 0.02 µM
- IC50 (TbHK1 C402A): 0.43 ± 0.11 µM
- EC50 (T. brucei parasites): 2.9 ± 0.28 µM
- Toxicity to parasites (T. brucei parasites): toxic to parasites
- Potency against PfHK relative to TbHK1 ([3]; more potent on PfHK): ~10 fold
- Reversibility of PfHK inhibition by dilution [3]: completely relieved by dilution
- Impact on oligomerization of TbHK1 (TbHK1 [6]): neither EbSe nor TCEP impact oligomerization
- Effect on parasite G6-P levels (parasite G6-P levels): able to reduce parasite G6-P levels
- Inhibition of human IDO [7]: inhibited

- Impact on enzyme activity ([1]; MPB at concentrations up to 50 μM): did not impact enzyme activity
Structure (SMILES): O=C(CCCCC1SCC2NC(=O)NC21)NCCCCC(NC(=O)CCN1C(=O)C=CC1=O)C(=O)O (stereo not drawn) [MPB, 3-(N-maleimidopropionyl)-biocytin]

Structure (SMILES): O=C(O)CCP(CCC(=O)O)CCC(=O)O [TCEP, tris (2-carboxyethyl)phosphine]
- Impact on oligomerization of TbHK1 (TbHK1 [6]): neither EbSe nor TCEP impact oligomerization
